# Source: patent publication US9434686B2, “Deacetylase inhibitors and uses thereof” (President and Fellows of Harvard College, priority 2008, dated 2016)
# Several values for one entry are separate records, joined by “and”; a condition that tells them apart may be missing. Equal values may be shown once. Read-outs that look alike come from different tables or passages of the source.
# Experiments:
# [1] = tested on: human multiple myeloma cells; assay: Cell proliferation (Cell TiterGlo) synergy of HDAC inhibitor with bortezomib; type: cell-based; settings: two cultures of human multiple myeloma cells, bortezomib 0, 2.5 nM, 5.0 nM
# Description: FIG. 7. […] Synergistic effects on cell proliferation were determined by varying concentrations of each HDAC inhibitor in the presence of varied concentrations of the proteasome inhibitor, bortezomib. Two cultures of human multiple myeloma cells were used for this study. Data presented are the IC50 data for the HDAC inhibitor studied (first column) in the presence of increasing concentrations of bortezomib (0, 2.5 nM, or 5.0 nM). The measurement of cell proliferation used is the Cell TiterGlo assay (Promega), which uses bioluminescence to report on ATP content in cultured cells.
# [2] = Pharmacokinetics of WT-161 in CD-1 mice after intravenous administration (plasma, LC-MS/MS); type: in vivo
# Description: WT-III-161 (Wt: 458.55 for free base) was dissolved in 25% DMSO, 25% Cremophor EL, and 50% saline to yield final concentration at 2 mg/mL for intravenous administration (pH=6-7). The solution was clear and light yellow, and the concentration of WT-III-161 in it was confirmed by HPLC method with an accuracy of 116.92% (Table I).
# Study design, animal selection, handling and treatment were in accordance with the Shanghai Medicilon Inc. study protocol (Shanghai Medicilon Inc Study No. BRD0701). Male CD0-1 mice (body weight 23 g to 27 g) were used in this study. Before the pharmacokinetic studies, animals were randomly assigned to the treatment groups (3 animals per timepoint). Ten additional mice were used to collect plasma for calibration curves.
# […] All the samples and the dose formulation were stored at −20° C. until bioanalysis or transportation to sponsor.
# The concentrations of WT-161 in plasma were determined using a high pressure liquid chromatography/mass spectrometry (LC-MS/MS) method.
# The LC system comprised an Aligent liquid chromatograph equipped with an isocratic pump (1100 series), an autosampler (1100 series) and a degasser (1100 series). Mass spectrometric analysis was performed using an API3000 (triple quadrupole) instrument from AB Inc (Canada) with an ESI interface. The data acquisition and control system were created using Analyst 1.4 software from ABI Inc. Acetonitrile and methanol were HPLC grade. All other solvents and chemicals were analytical grade or better.
# Pharmacokinetic software DAS 2.0 (Gaosi Data Analysis Inc., Wuhn, China) was used.
# Chromatographic conditions: ColumnL Synergi Fusion-RP, 4 μm (150 mm×2.0 mm); Mobile phase: 0.1% formic acid:methanol:acetonitrile (5:90:5); Elution rate: 350 μL/min; Column temperature: 25° C.; Injection volume: 2 μL.
# Scan type: positive MRM; Ion Source: Turbo spray; Ionization mode: ESI; Nebulize gas: 8 L/min; Curtain gas: 8 L/min; Collision gas: 4 L/min; Ionspray voltage: 5000 V; Temperature: 500° C.
# Plasma samples (0.1 mL) were transferred to Eppendorff tubes, then 20 μL of methanol, 500 μL IS solutions (50 ng/mL) were added to it. After vortexing for 1 minute and centrifuging for 5 min at 15,000 rpm, 2 μL of supernatant was injected onto the LC-MS/MS.
# The concentration in plasma below the limit of quantitation (LOQ=5 ng/mL) were designated as zero. The pharmacokinetic data analysis was performed using noncompartmental analysis modules in DAS 2.0.
# HDAC6 [3] = target: T1, HDAC6 (Homo sapiens, UniProt Q9UBN7); assay: High content acetylation assay (AcTubulin vs AcHistone) in cultured cells; type: cell-based; settings: dose-range, TDAC activity as surrogate for HDAC6 inhibition
# T1 construct: endogenous in cells
# T1 sequence (Q9UBN7 1-1215): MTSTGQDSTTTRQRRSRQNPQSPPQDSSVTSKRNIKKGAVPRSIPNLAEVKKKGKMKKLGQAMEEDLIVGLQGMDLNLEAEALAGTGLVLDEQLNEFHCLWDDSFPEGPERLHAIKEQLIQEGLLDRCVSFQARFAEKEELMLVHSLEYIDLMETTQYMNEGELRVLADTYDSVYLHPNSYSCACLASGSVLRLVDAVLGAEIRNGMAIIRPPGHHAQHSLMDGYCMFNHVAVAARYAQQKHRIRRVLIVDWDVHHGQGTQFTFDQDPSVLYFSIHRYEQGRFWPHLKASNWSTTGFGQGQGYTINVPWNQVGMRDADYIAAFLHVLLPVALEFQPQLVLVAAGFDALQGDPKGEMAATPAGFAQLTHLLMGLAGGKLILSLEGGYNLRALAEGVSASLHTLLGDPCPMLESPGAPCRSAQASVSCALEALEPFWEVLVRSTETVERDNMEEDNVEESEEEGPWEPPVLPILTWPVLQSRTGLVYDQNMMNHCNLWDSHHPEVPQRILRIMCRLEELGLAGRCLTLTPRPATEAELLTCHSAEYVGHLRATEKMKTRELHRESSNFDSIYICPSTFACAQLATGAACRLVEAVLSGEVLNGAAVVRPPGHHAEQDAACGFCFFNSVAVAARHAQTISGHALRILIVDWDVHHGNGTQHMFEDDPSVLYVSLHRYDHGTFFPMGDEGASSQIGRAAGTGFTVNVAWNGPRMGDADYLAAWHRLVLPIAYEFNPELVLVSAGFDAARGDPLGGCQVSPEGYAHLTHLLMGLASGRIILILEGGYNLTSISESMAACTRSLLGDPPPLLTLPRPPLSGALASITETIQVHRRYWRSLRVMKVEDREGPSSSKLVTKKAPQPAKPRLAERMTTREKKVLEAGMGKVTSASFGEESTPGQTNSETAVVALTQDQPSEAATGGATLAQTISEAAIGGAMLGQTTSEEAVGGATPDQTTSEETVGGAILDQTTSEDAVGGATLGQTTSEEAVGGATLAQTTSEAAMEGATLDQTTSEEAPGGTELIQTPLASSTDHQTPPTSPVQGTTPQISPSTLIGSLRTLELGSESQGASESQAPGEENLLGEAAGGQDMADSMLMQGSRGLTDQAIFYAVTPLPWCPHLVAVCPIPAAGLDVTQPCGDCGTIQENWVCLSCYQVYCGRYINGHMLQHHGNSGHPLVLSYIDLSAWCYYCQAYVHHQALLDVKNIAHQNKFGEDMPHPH
# Description: FIG. 2. High-throughput, high-content, quantitative detection method for identifying HDAC inhibitors. Cells are seeded in 384-well plates (2,000 cells/well) and treated with test compound, fixed, and then stained with Hoechst (nuclei), primary anti-AcTubulin monoclonal antibody and anti-AcHistone polyclonal antibody, then with compatible fluorophore-conjugated secondary antibodies. After automated image acquisition a custom analysis script identifies and masks cells, then derives quantitative fluorescence data from FITC (AcTubulin) and rhodamine (AcHistone) channels (MetaXPress; Molecular Devices).
# FIG. 3. WT-161 Induction of AcTubulin (Red) and AcHistone (Blue) by HCS. As described in FIG. 2, the high content acetylation assay was employed to determine the comparative induction of acetylated histones versus acetylated tubulin across a dose-range of WT-161.
# FIG. 4. […] Dose-response data from FIG. 3 have been used to generate EC50 values of cellular histone and tubulin acetylation effects of WT-161. […] HDAC activity is used to indicate biological activity of proteins mediating histone deacetylation, as this is a cellular assay measuring global effects on acetylation. TDAC activity is a surrogate measurement for HDAC6 inhibition in cultured cells.
# HDAC6 [4] = target: T1, HDAC6; assay: HDAC biochemical (homogeneous) assay, inhibitory constants
# Description: FIG. 5. HDAC Biochemical Assay Schema. 7-amino-4-methylcoumarin (7AMC) is linked by an amide bond to acetylated lysine in the context of an isoform-selective substate. Pictured here is a derived substrate for HDACs 1, 2, 3, and 6. HDAC hydrolyzes acetylated lysine, which is then a substrate for rapid trypsin digestion releasing 7AMC (shown in green) which is detected in real time by a fluorescence plate reader. Linear data captured after a pre-incubation phase (30 minutes) provides a kinetic assessment of deacetylase activity.
# FIG. 6. […] Robust assay for HDACs 1, 2, 3, 5, 6, and 8 have been established.
# [5] = male, mouse, CD-1 mice, IV 5 mg/kg, plasma
smiles,measurement,setting,value
"O=C(CCCCCCC(=O)Nc1ccc([C@H]2O[C@@H](CSc3nc(-c4ccccc4)c(-c4ccccc4)o3)C[C@@H](c3ccc(CO)cc3)O2)cc1)NO [tubacin, reference compound]",Synergy with bortezomib on cell proliferation,[1],most pronounced synergy
O=C(CCCCCCC(=O)N/N=C/c1ccc(N(c2ccccc2)c2ccccc2)cc1)NO [WT-161],"Concentration in plasma, individual mice 1-3","[2]; 0.033 hr post-dose, IV 5 mg/kg, 5 mg/kg",13606.91 ng/mL and 27492.70 ng/mL and 14890.74 ng/mL
same,"Concentration in plasma, individual mice 1-3","[2]; 0.083 hr post-dose, IV 5 mg/kg, 5 mg/kg",6082.36 ng/mL and 8591.87 ng/mL
same,"Concentration in plasma, individual mice 1-3","[2]; 0.25 hr post-dose, IV 5 mg/kg, 5 mg/kg",1762.06 ng/mL and 1336.63 ng/mL
same,"Concentration in plasma, individual mice 1-3","[2]; 0.5 hr post-dose, IV 5 mg/kg, 5 mg/kg",780.44 ng/mL and 1152.36 ng/mL
same,"Concentration in plasma, individual mice 1-3","[2]; 1 hr post-dose, IV 5 mg/kg, 5 mg/kg",122.63 ng/mL and 57.74 ng/mL and 263.97 ng/mL
same,"Concentration in plasma, individual mice 1-3","[2]; 2 hr post-dose, IV 5 mg/kg, 5 mg/kg",87.92 ng/mL and 114.00 ng/mL
same,"Concentration in plasma, individual mice 1-3","[2]; 3 hr post-dose, IV 5 mg/kg, 5 mg/kg",25.12 ng/mL and 9.38 ng/mL and 14.37 ng/mL
same,"Concentration in plasma, individual mice 1-3","[2]; 4 hr post-dose, IV 5 mg/kg, 5 mg/kg",74.08 ng/mL and 20.79 ng/mL and 7.37 ng/mL
same,"Concentration in plasma, individual mice 1-3","[2]; 6 hr post-dose, IV 5 mg/kg, LOQ 5 ng/mL, 5 mg/kg",BLQ and 6.57 ng/mL
same,"Concentration in plasma, individual mice 1-3","[2]; 8 hr post-dose, IV 5 mg/kg, LOQ 5 ng/mL",BLQ
same,"Concentration in plasma, individual mice 1-3","[2]; 24 hr post-dose, IV 5 mg/kg, LOQ 5 ng/mL",BLQ
same,Systemic clearance as percent of mouse hepatic blood flow (5.40 L/hr/kg),"[2]; CD-1 mice, IV bolus 5 mg/kg",30.37%
same,concentration at 0.033 hr,"[2]; male, CD-1, mouse, plasma, iv, 5 mg/kg, 0.033 hr post-dose, IV 5 mg/kg",18700 ng/mL
same,concentration at 0.083 hr,"[2]; male, CD-1, mouse, plasma, iv, 5 mg/kg, 0.083 hr post-dose, IV 5 mg/kg, read-out: Concentration in plasma, Mean",8000 ng/mL
same,concentration at 0.083 hr,"[2]; male, CD-1, mouse, plasma, iv, 5 mg/kg, 0.083 hr post-dose, IV 5 mg/kg, read-out: Concentration in plasma, individual mice 1-3",9330 ng/mL
same,concentration at 0.25 hr,"[2]; male, CD-1, mouse, plasma, iv, 5 mg/kg, 0.25 hr post-dose, IV 5 mg/kg, read-out: Concentration in plasma, Mean",1760 ng/mL
same,concentration at 0.25 hr,"[2]; male, CD-1, mouse, plasma, iv, 5 mg/kg, 0.25 hr post-dose, IV 5 mg/kg, read-out: Concentration in plasma, individual mice 1-3",2190 ng/mL
same,concentration at 0.5 hr,"[2]; male, CD-1, mouse, plasma, iv, 5 mg/kg, 0.5 hr post-dose, IV 5 mg/kg, read-out: Concentration in plasma, Mean",956 ng/mL
same,concentration at 0.5 hr,"[2]; male, CD-1, mouse, plasma, iv, 5 mg/kg, 0.5 hr post-dose, IV 5 mg/kg, read-out: Concentration in plasma, individual mice 1-3",934 ng/mL
same,concentration at 1 hr,"[2]; male, CD-1, mouse, plasma, iv, 5 mg/kg, 1 hr post-dose, IV 5 mg/kg",148 ng/mL
same,concentration at 2 hr,"[2]; male, CD-1, mouse, plasma, iv, 5 mg/kg, 2 hr post-dose, IV 5 mg/kg, read-out: Concentration in plasma, Mean",95.2 ng/mL
same,concentration at 2 hr,"[2]; male, CD-1, mouse, plasma, iv, 5 mg/kg, 2 hr post-dose, IV 5 mg/kg, read-out: Concentration in plasma, individual mice 1-3",83.6 ng/mL
same,concentration at 3 hr,"[2]; male, CD-1, mouse, plasma, iv, 5 mg/kg, 3 hr post-dose, IV 5 mg/kg",16.3 ng/mL
same,concentration at 4 hr,"[2]; male, CD-1, mouse, plasma, iv, 5 mg/kg, 4 hr post-dose, IV 5 mg/kg",34.1 ng/mL
same,concentration at 6 hr,"[2]; male, CD-1, mouse, plasma, iv, 5 mg/kg, 6 hr post-dose, IV 5 mg/kg, BLQ designated as zero, read-out: Concentration in plasma, Mean",4.15 ng/mL
same,concentration at 6 hr,"[2]; male, CD-1, mouse, plasma, iv, 5 mg/kg, 6 hr post-dose, IV 5 mg/kg, LOQ 5 ng/mL, read-out: Concentration in plasma, individual mice 1-3",5.87 ng/mL
same,Cmax,"[2]; male, CD-1, mouse, plasma, iv, 5 mg/kg, CD-1 mice, IV 5 mg/kg, read-out: Cmax",18700 ng/mL
same,Cmax,"[2]; male, CD-1, mouse, plasma, iv, 5 mg/kg, IV, nominal dose 5 mg/kg, read-out: Cmax (at 2 minutes after dosing)",18700 ng/mL
same,Tmax,"[2]; male, mouse, plasma, CD-1 mice, IV 5 mg/kg",1.8 min
same,clearance,"[2]; male, mouse, plasma, CD-1 mice, IV 5 mg/kg, read-out: CLZ (systemic clearance) (converted)",27.3 mL/min/kg
same,MRT inf,"[2]; male, mouse, plasma, CD-1 mice, IV 5 mg/kg, read-out: MRT(0-∞)",19.8 min
same,half-life,"[2]; male, mouse, plasma, CD-1 mice, IV 5 mg/kg, read-out: T1/2z (half-life) (converted)",84.6 min
same,Vd,"[2]; male, mouse, plasma, CD-1 mice, IV 5 mg/kg, read-out: VZ (volume of distribution at terminal phase)",3.33 L/kg
same,AUC(0-inf),[2]; [5],3050 ng·h/mL
same,AUC(0-t),[2]; [5],3020 ng·h/mL
same,Tissue distribution,"[2]; mice, IV 5 mg/kg",distributes well in tissues
same,Volume of distribution as fold of total body water (0.73 L/kg),"[2]; mice, IV 5 mg/kg",4.56 fold
same,Comparative induction of acetylated tubulin versus acetylated histones (cellular selectivity),HDAC6 [3],Selective Inhibition of HDAC6
same,"Inhibitory constant (Ki) for HDAC6, in words",HDAC6 [4],Potent inhibition of HDAC6
same,"Selectivity among HDACs 1, 2, 3, 5, 6, 8, in words",HDAC6 [4],Selective Inhibition of HDAC6
same,Synergy with bortezomib on cell proliferation,[1],most pronounced synergy
